Measurements as given in the NIST ThermoML archive (doi:10.1016/j.jct.2008.10.007).

Tests used:
[1] = 298.15 K; 101 kPa; Liquid; Vibrating tube method
[2] = xn = mol fraction of the nth substance listed; conditions: 298.15 K, 101 kPa, Liquid, Vibrating tube method
[3] = excess molar enthalpy (molar enthalpy of mixing); xn = mol fraction of the nth substance listed; conditions: 298.15 K, 101 kPa, Liquid, Calvet calorimetry

CCCOC(C)=O [propyl ethanoate]
Conditions | mass density [kg/m3]
[1] | 882.08

CCCOC(=O)CCC [propyl butanoate]
Conditions | mass density [kg/m3]
[1] | 867.9

CCCOC=O [propyl methanoate]
Conditions | mass density [kg/m3]
[1] | 899.81

CCCOC(=O)CCC [propyl butanoate] + ClCCCl
Conditions | excess molar enthalpy [kcal/mol] | mass density [kg/m3]
[2], x1 = 0.0329 | – | 1222.22
[2], x1 = 0.065 | – | 1200.67
[2], x1 = 0.1029 | – | 1176.79
[2], x1 = 0.1385 | – | 1155.7
[2], x1 = 0.1815 | – | 1132.09
[2], x1 = 0.2225 | – | 1110.75
[2], x1 = 0.2703 | – | 1087.77
[2], x1 = 0.3191 | – | 1065.93
[2], x1 = 0.3743 | – | 1043.05
[2], x1 = 0.4285 | – | 1022.26
[2], x1 = 0.4904 | – | 1000.19
[2], x1 = 0.556 | – | 978.67
[2], x1 = 0.628 | – | 956.91
[2], x1 = 0.7087 | – | 934.51
[2], x1 = 0.7989 | – | 911.8
[2], x1 = 0.8938 | – | 890.06
[2], x1 = 1 | – | 867.9
[3], x1 = 0.0365 | -0.00837 | –
[3], x1 = 0.0999 | -0.0229 | –
[3], x1 = 0.1556 | -0.0363 | –
[3], x1 = 0.2176 | -0.0526 | –
[3], x1 = 0.281 | -0.0684 | –
[3], x1 = 0.343 | -0.0851 | –
[3], x1 = 0.3848 | -0.0951 | –
[3], x1 = 0.4055 | -0.098 | –
[3], x1 = 0.4534 | -0.106 | –
[3], x1 = 0.5266 | -0.109 | –
[3], x1 = 0.6369 | -0.0997 | –
[3], x1 = 0.7616 | -0.0746 | –
[3], x1 = 0.8961 | -0.0399 | –

ClCCCCCCl [1,5-dichloropentane] + CCCOC(=O)CC
Conditions | excess molar enthalpy [kcal/mol] | mass density [kg/m3]
[2], x2 = 0.0586 | – | 1081.99
[2], x2 = 0.1204 | – | 1068.2
[2], x2 = 0.1736 | – | 1056.39
[2], x2 = 0.2854 | – | 1031.55
[2], x2 = 0.3403 | – | 1019.42
[2], x2 = 0.4006 | – | 1006.12
[2], x2 = 0.5242 | – | 978.97
[2], x2 = 0.635 | – | 954.74
[2], x2 = 0.6961 | – | 941.43
[2], x2 = 0.7548 | – | 928.67
[2], x2 = 0.8219 | – | 914.07
[2], x2 = 0.8809 | – | 901.3
[2], x2 = 0.942 | – | 888.12
[3], x2 = 0.0588 | -0.00406 | –
[3], x2 = 0.1375 | -0.0136 | –
[3], x2 = 0.2257 | -0.0241 | –
[3], x2 = 0.3118 | -0.0375 | –
[3], x2 = 0.3922 | -0.0495 | –
[3], x2 = 0.4517 | -0.0576 | –
[3], x2 = 0.4693 | -0.059 | –
[3], x2 = 0.5239 | -0.0609 | –
[3], x2 = 0.5982 | -0.0588 | –
[3], x2 = 0.6783 | -0.0526 | –
[3], x2 = 0.7663 | -0.0425 | –
[3], x2 = 0.855 | -0.0287 | –
[3], x2 = 0.9359 | -0.0146 | –

CCCOC(=O)CC [propyl propanoate] + ClCCCl
Conditions | excess molar enthalpy [kcal/mol] | mass density [kg/m3]
[2], x1 = 0.0347 | – | 1224.28
[2], x1 = 0.0727 | – | 1201.87
[2], x1 = 0.1118 | – | 1180.16
[2], x1 = 0.1538 | – | 1158.1
[2], x1 = 0.1965 | – | 1136.61
[2], x1 = 0.2437 | – | 1114.31
[2], x1 = 0.2932 | – | 1092.38
[2], x1 = 0.3455 | – | 1070.49
[2], x1 = 0.3994 | – | 1049.24
[2], x1 = 0.4599 | – | 1026.87
[2], x1 = 0.5188 | – | 1006.4
[2], x1 = 0.5854 | – | 984.69
[2], x1 = 0.6557 | – | 963.29
[2], x1 = 0.7316 | – | 941.63
[2], x1 = 0.8153 | – | 919.43
[2], x1 = 0.8998 | – | 898.5
[2], x1 = 1 | – | 875.61
[3], x1 = 0.0428 | -0.0129 | –
[3], x1 = 0.1001 | -0.0299 | –
[3], x1 = 0.1671 | -0.0526 | –
[3], x1 = 0.2376 | -0.0758 | –
[3], x1 = 0.3085 | -0.0975 | –
[3], x1 = 0.3736 | -0.115 | –
[3], x1 = 0.4312 | -0.125 | –
[3], x1 = 0.4782 | -0.132 | –
[3], x1 = 0.5177 | -0.133 | –
[3], x1 = 0.5861 | -0.128 | –
[3], x1 = 0.671 | -0.117 | –
[3], x1 = 0.7874 | -0.0853 | –
[3], x1 = 0.9084 | -0.0437 | –

CCCOC(=O)CC [propyl propanoate]
Conditions | mass density [kg/m3]
[1] | 875.61

ClCCCCCl [1,4-dichlorobutane] + CCCOC(C)=O
Conditions | excess molar enthalpy [kcal/mol] | mass density [kg/m3]
[2], x2 = 0.0583 | – | 1118.51
[2], x2 = 0.1175 | – | 1103.2
[2], x2 = 0.1743 | – | 1088.55
[2], x2 = 0.232 | – | 1073.72
[2], x2 = 0.3494 | – | 1043.76
[2], x2 = 0.465 | – | 1014.55
[2], x2 = 0.523 | – | 999.98
[2], x2 = 0.5845 | – | 984.6
[2], x2 = 0.6424 | – | 970.19
[2], x2 = 0.7011 | – | 955.64
[2], x2 = 0.7618 | – | 940.61
[2], x2 = 0.8813 | – | 911.2
[2], x2 = 0.9397 | – | 896.91
[3], x2 = 0.0555 | -0.00478 | –
[3], x2 = 0.1316 | -0.0131 | –
[3], x2 = 0.2183 | -0.0234 | –
[3], x2 = 0.3079 | -0.0359 | –
[3], x2 = 0.3915 | -0.048 | –
[3], x2 = 0.456 | -0.055 | –
[3], x2 = 0.4663 | -0.0559 | –
[3], x2 = 0.4979 | -0.0576 | –
[3], x2 = 0.5721 | -0.0564 | –
[3], x2 = 0.6576 | -0.0523 | –
[3], x2 = 0.7494 | -0.0447 | –
[3], x2 = 0.8443 | -0.0318 | –
[3], x2 = 0.9296 | -0.0174 | –
